Experimental data taken from patent publication US5958983A, “Polyaromatic antiviral compositions” (Pharmacia & Upjohn Company, priority 1998, dated 1999).

How the values were obtained:
[1] = tested on: VZV; assay: Inhibition of VZV replication (plaque reduction, HFF cells); assay type: cell-based, varicella zoster virus; details: five days
Method: Antiviral activity against VZV are evaluated in an assay to measure the reduction of viral replication in the number viral plaques formed over five days of incubation in the presence of compounds of the present invention. Aliquots of VZV are added for 90 minutes to 24 well plates having HFF cells at 80% confluence to yield approximately 25 plaques for media treated wells. The plates are flicked and dilutions of compounds in tissue culture media at 2 time strength are added (0.5 ml per well). Immediately following the addition of drug 0.5 ml of 1.0% agarose is added to the wells and the plates are gently tapped to aid mixing. This final concentration of agarose (0.5%) is […] to solidify at 37° C. and serves as a semi solid overlay medium. Plates are undisturbed for five days. On day 5 the plates are examined microscopically for toxicity and plaques are counted using low power microscopy.
(§1) In the Tables, the sign "+++" refers to >90% inhibition at the indicated concentration. The sign "++" refers to >50% inhibition at the indicated concentration. The sign "+" refers to <50% inhibition at the indicated concentration. The sign "-" refers that no inhibitory activity is observed at the indicated concentration. A blank cell means the datum is not available.

[2] = tested on: HSV-1; assay: Inhibition of HSV-1 viral replication (virus yield reduction assay, Vero cells); assay type: cell-based, herpes simplex virus type-1; details: 14-16 hours
Method: (§2) Compounds of the formulas II and III of the present invention are evaluated in an assay to measure the inhibition of HSV-1 viral replication in the presence of drug over a 14-16 hour period. The assay is discussed in detail by Pritchard, M. N. et al. "A Microliter Virus Yield Reduction Assay for the Evaluation of Antiviral Compounds Against Human Cytomegalovirus and Herpes Simplex Virus", J. Virol. Meth., Vol. 28, pp 101-106 (1990). Briefly, 80% confluent monolayers of Vero cells in 24 well plates are infected with low multiplicities of HSV-1 (MOI=0.001). After an absorption period of 1 hour at 37° C., the monolayers are rinsed with culture media and aliquots of compounds diluted into tissue culture media are added for 14-16 hours at 37° C. in a CO2 atmosphere. The growth media is removed and 1 ml of fresh media is added to each well and plates are placed at -70° C. After a 1-5 day storage period the plates are rapidly thawed, samples are collected on ice and titrated on fresh Vero cell monolayers. Viral plaques are stained with 0.1% crystal violet in 20% alcohol for 10 minutes and are counted. Data are calculated to reflect the percentage of inhibition at indicated concentration relative to infected, non-drug treated controls.
as §1

[3] = tested on: HSV-2; assay: Inhibition of HSV-2 viral replication (substantially same assay as HSV-1); assay type: cell-based, herpes simplex virus type-2; details: 14-16 hours
Method: as §2
Compounds of the formulas II and III of the present invention are also evaluated in substantially the same assay as described above to measure the inhibition of HSV-2 viral replication.
as §1

| Structure (SMILES) | % Inhibition Against VZV Viral Replication, 2 μm [1] | % Inhibition Against HSV-1 Viral Replication, 5 μm [2] | % Inhibition Against HSV-1 Viral Replication, 30 μm [2] | % Inhibition Against HSV-2 Viral Replication, 1 μm [3] | % Inhibition Against HSV-2 Viral Replication, 10 μm [3] | % Inhibition Against VZV Viral Replication, 10 μm ([1]; 10 μm) |
| --- | --- | --- | --- | --- | --- | --- |
| O=S(=O)(c1ccc(OCc2ccc(Cl)cc2)cc1)c1ccc(OCc2ccc(Cl)cc2)cc1 [Example 17, bis(4-chlorobenzyloxy)(sulfonyldi-4,1-phenylene)] | ++ (>50% inhibition at the indicated concentration) | + (<50% inhibition at the indicated concentration) | ++ (>50% inhibition at the indicated concentration) | ++ (>50% inhibition at the indicated concentration) | ++ (>50% inhibition at the indicated concentration) |  |
| COc1ccc(NC(=O)Nc2ccc(Cl)cc2)cc1NC(=O)Nc1ccc(Cl)cc1 [Example 3, N,N"-(4-methoxy-1,3-phenylene)bis[N'-(4-chlorophenyl)urea]] |  | + (<50% inhibition at the indicated concentration) | + (<50% inhibition at the indicated concentration) |  |  |  |
| O=S(=O)(c1ccc(O)cc1)c1ccc(OCc2ccc(Cl)cc2)cc1 [Example 22, (4-chlorobenzyloxy)hydroxy(sulfonyldi-4,1-phenylene)] |  | - (no inhibitory activity is observed at the indicated concentration) | ++ (>50% inhibition at the indicated concentration) |  |  |  |
| O=C(Nc1ccc(Oc2ccc(NC(=O)c3ccco3)cc2)cc1)c1ccco1 [Example 16, N,N"-(oxydi-4,1-phenylene)bis(2-furancarboxamide)] |  | + (<50% inhibition at the indicated concentration) | ++ (>50% inhibition at the indicated concentration) |  |  |  |
| COc1cccc(NS(=O)(=O)c2ccc(Oc3ccc(S(=O)(=O)Nc4cccc(OC)c4)cc3)cc2)c1 [Example 9, bis[N-(3-methoxyphenyl)aminosulfonyl](oxydi-4,1-phenylene)] |  | + (<50% inhibition at the indicated concentration) | +++ (>90% inhibition at the indicated concentration) |  |  |  |
| O=S(=O)(c1ccc(OCc2ccc(Br)cc2)cc1)c1ccc(OCc2ccc(Br)cc2)cc1 [Example 18, bis(4-bromobenzyloxy)(sulfonyldi-4,1-phenylene)] |  | + (<50% inhibition at the indicated concentration) | ++ (>50% inhibition at the indicated concentration) |  |  | +++ (>90% inhibition at the indicated concentration) |
| COc1ccc(NC(=S)Nc2ccc(Cl)cc2)cc1NC(=S)Nc1ccc(Cl)cc1 [Example 6, N,N"-(4-methoxy-1,3-phenylene)bis[N'-(4-chlorophenyl)thiourea]] |  | - (no inhibitory activity is observed at the indicated concentration) | + (<50% inhibition at the indicated concentration) |  |  |  |
| N=C(Nc1ccc(Cc2ccc(NC(=N)c3ccccc3)cc2)cc1)c1ccccc1 [Example 13, N,N"-(methylenedi-4,1-phenylene)bis [benzenecarboximidamide]] | + (<50% inhibition at the indicated concentration) | + (<50% inhibition at the indicated concentration) | +++ (>90% inhibition at the indicated concentration) | + (<50% inhibition at the indicated concentration) | +++ (>90% inhibition at the indicated concentration) |  |
| O=S(=O)(c1ccc(OCc2ccc(F)cc2)cc1)c1ccc(OCc2ccc(F)cc2)cc1 [Example 20, bis(4-fluorobenzyloxy)(sulfonyldi-4,1-phenylene)] |  | + (<50% inhibition at the indicated concentration) | ++ (>50% inhibition at the indicated concentration) |  |  |  |
| COc1ccc(NC(=O)Nc2ccc(C)cc2)cc1NC(=O)Nc1ccc(C)cc1 [Example 4, N,N"-(4-methoxy-1,3-phenylene)bis[N'-(p-tolyl)urea]] |  | + (<50% inhibition at the indicated concentration) | + (<50% inhibition at the indicated concentration) |  |  |  |
| Cc1cccc(NS(=O)(=O)c2ccc(Oc3ccc(S(=O)(=O)Nc4cccc(C)c4)cc3)cc2)c1 [Example 11, bis[N-(3-methylphenyl)aminosulfonyl](oxydi-4,1-phenylene)] |  | - (no inhibitory activity is observed at the indicated concentration) | ++ (>50% inhibition at the indicated concentration) |  |  |  |
| S=C(NCCc1ccccc1)Nc1ccc(Oc2ccc(NC(=S)NCCc3ccccc3)cc2)cc1 [Example 15, N,N"-(oxydi-4,1-phenylene)bis[N'-(2-phenylethyl)thiourea]] | +++ (>90% inhibition at the indicated concentration) | + (<50% inhibition at the indicated concentration) | + (<50% inhibition at the indicated concentration) | + (<50% inhibition at the indicated concentration) | + (<50% inhibition at the indicated concentration) |  |
| Cc1ccc(NC(=S)Nc2ccc(Cl)cc2)cc1NC(=S)Nc1ccc(Cl)cc1 [Example 1, N,N"-(4-methyl-1,3-phenylene)bis[N'-(4-chlorophenyl)thiourea]] |  | - (no inhibitory activity is observed at the indicated concentration) | + (<50% inhibition at the indicated concentration) |  |  |  |
| Cc1ccc(NS(=O)(=O)c2cccc(S(=O)(=O)Nc3ccc(C)cc3)c2)cc1 [Example 10, N,N"-(1,3-phenylene)bis[N-(p-tolyl)aminosulfonyl]] |  | + (<50% inhibition at the indicated concentration) | ++ (>50% inhibition at the indicated concentration) |  |  |  |
| O=[N+]([O-])c1ccc(COc2ccc(S(=O)(=O)c3ccc(O)cc3)cc2)cc1 [Example 21, hydroxy(4-nitrobenzyloxy)(sulfonyldi-4,1-phenylene)] |  | - (no inhibitory activity is observed at the indicated concentration) | ++ (>50% inhibition at the indicated concentration) |  |  |  |
| O=S(=O)(c1ccc(OCc2ccncc2)cc1)c1ccc(OCc2ccncc2)cc1 [Example 19, bis [(4-pyridyl)methoxy](sulfonyldi-4,1-phenylene)] |  | + (<50% inhibition at the indicated concentration) | + (<50% inhibition at the indicated concentration) |  |  |  |
